Residues, ends and D or L forms follow the SMILES beside them.
Key:
[1] = system: E. coli strain No. 12 and isogenic mutants; type: cell-based, Escherichia coli; conditions: bacteria pre-grown planktonically, curli expression suppressed (data not shown)
Method: For further investigation, E. coli isolate No. 12 from a child with pyelonephritis was chosen. This was a typical isolate expressing both curli and cellulose as well as type 1 fimbriae and yielding an approximately median level of biofilm as measured on microtiter plates. One-step knockout of bcsA and csgBA was carried out according to the protocol of Datsenko and Wanner with modifications, [50]. The following mutants were constructed using oligos listed in Table 1; WE1 bcsA::Cm, deficient in cellulose production; WE11 csgBA::Cm, deficient in curli production; and WE16 csgBA bscA::Cm, deficient in both cellulose and curli production. Expression of curli and cellulose in strain No. 12 was confirmed by these knockouts. Production of type 1 fimbriae under the culture conditions used for experiments was confirmed by yeast agglutination (see below).
The susceptibility of wild-type and mutant E. coli strains to synthetic LL-37 and mCRAMP (Innovagen AB, Lund, Sweden) was determined using a broth microdilution method. Briefly, bacteria were grown overnight at 37°C on LB plates with or without salt, inhibiting or promoting the formation of biofilm, respectively. Then, bacteria were suspended in PBS and diluted in LB broth without salt in a concentration of 10^5 CFU/ml. The bacterial concentration was verified by viable count after serial dilutions in PBS. Bacteria (90 µl suspension) were grown in 96-well plates in the presence of 10 µl aqueous solution of synthetic LL-37 or mCRAMP in final concentrations ranging from 0.6 µM to 20 µM in 2-fold dilutions. After 20 h, bacterial viability was measured colorimetrically by reduction of Alamar blue (BioSource International, Camarillo, CA, USA) for 1 h at 37°C [57]. The IC50 was determined as the peptide concentration that gave 50% reduction of the absorbance at 570 nm relative to bacteria grown without peptide.

CsgA = assay: CD spectroscopy of CsgA; parameters: species or system Escherichia coli; conditions: 40 µM CsgA alone, 50 mM KPi, 0.02% NaN3, pH 7.2, 60 h at 37°C
Method: Samples containing 40 µM CsgA in 50 mM potassium phosphate buffer (KPi) and 0.02% NaN3, pH 7.2, with and without 10 µM LL-37 were incubated for 60 h at 37°C. The samples were then assayed with a Jasco J-810 spectropolarimeter from 190 to 250 nm in a quartz cell with a 1-mm path length at 20°C. The spectrum of buffer alone and LL-37 in buffer was subtracted from the spectra for CsgA alone and for CsgA together with LL-37, respectively.

CsgA polymerization = target: T1, CsgA polymerization (Escherichia coli, UniProt P28307); assay: CsgA polymerization, Thioflavin T assay, Tecan plate reader; type: biochemical; conditions: 20 µM ThT, 37°C
T1 construct: made in house; host or cells: E. coli LSR12 (C600::csg), co-expressed with CsgG
T1 sequence (P28307 21-151): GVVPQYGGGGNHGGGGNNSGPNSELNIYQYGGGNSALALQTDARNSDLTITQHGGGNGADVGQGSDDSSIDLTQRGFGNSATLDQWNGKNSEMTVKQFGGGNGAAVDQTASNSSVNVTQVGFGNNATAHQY
Method: (§1) CsgA-His6 and CsgG, a lipoprotein that is required for CsgA secretion, were overexpressed in LSR12 (C600::csg). The purification procedure of recombinant CsgA-His6 was performed as previously described with some modifications. The filtrate was incubated with nickel-nitrilotriacetic acid (Ni-NTA) agarose (Invitrogen) for 1 h at 4°C with shaking, centrifuged at 200×g for 5 min and transferred to a polyprep chromatography column (Bio-Rad, Hercules, CA, USA). To confirm protein identity of CsgA-His6, the isolated protein was prepared and subjected to SDS-PAGE as described below, and thereafter the protein was transferred from the gel to a polyvinylidene fluoride (PVDF) membrane (Invitrogen) at 160 mA for 60 min. The band of 15 kDa, corresponding to the molecular weight of CsgA-His6, was excised from the membrane stained with Coomassie Blue and analysed with N-terminal sequence analysis as has been described. Since it has previously been shown that CsgA-His6 has the same polymerizing properties as wild-type CsgA [59], we refer to CsgA-His6 as CsgA.
Purified recombinant monomeric CsgA (10 µM) with or without different concentrations of the peptides LL-37, sLL-37 or VIP was mixed with 20 µM of the fiber-specific fluorescent probe ThT (Sigma-Aldrich). Fluorescence was measured with a Tecan infinite M200 reader (Tecan Nordic AB, Täby, Sweden). The excitation and emission wavelength was 430 and 490 nm, respectively. Measurements were conducted at 37°C every 10 min after shaking the sample for five seconds. Background fluorescence of the peptides themselves was subtracted.

toll-like receptor 2 = conditions: cytokine induction by Salmonella; ref [31]; cited from earlier work
Description: In the pathogenesis of infection, curli fimbriae have previously been implicated in the attachment and invasion of host cells, interaction with host proteins and activation of the immune system, [29], [30].

CsgA fiber formation = assay: CsgA fiber formation, Thioflavin T, confocal microscopy; type: biochemical, Escherichia coli; conditions: CsgA with equimolar peptide (1∶1), 20 µM ThT, 20 h at 37°C; CsgA alone = 1 arbitrary unit; corrected for peptide fluorescence; two experiments
Method: as §1
Recombinant monomeric CsgA was mixed with equimolar LL-37, sLL-37 or VIP and 20 µM ThT, and incubated over night at 37°C, washed twice, and suspended in 10 mM Kpi, pH 7.2 before mounting in ProLong Gold antifade mounting medium (Invitrogen). Images were acquired on a Leica TCS SP5 confocal microscope using a 20× objective. Fluorescence intensity was quantified using ImageJ software. The difference in fluorescence intensity of CsgA with and without peptides was calculated and corrected for the contribution of fluorescence from the peptides themselves.

polymeric CsgA = target: T2, polymeric CsgA (Escherichia coli, UniProt P28307); assay: Surface plasmon resonance, polymeric CsgA; conditions: polymeric CsgA immobilized (7000 response units), 0.1 µM peptide, 20 µl/min for 3 min, HBS-EP, Biacore 3000; binding constants not determinable
T2 construct: made in house; host or cells: E. coli LSR12 (C600::csg), co-expressed with CsgG
T2 sequence (P28307 21-151): as above
Method: (§2) Binding analysis of LL-37 to both monomeric and polymeric CsgA was performed with surface plasmon resonance (Biacore 3000 instrument; Biacore AB, Uppsala, Sweden). Both monomeric and polymeric CsgA was immobilized on a CM5 sensor chip (Biacore AB) surface by amine coupling. The chip surface was normalized in 70% glycerol and lanes on the chip were activated with injection of 35 µL 0.05 M N-hydroxysuccinimide (NHS)/0.2 M N-ethyl-N′-[3-dimethylamino) propyl]carbodiimide (EDC). Polymeric or monomeric CsgA (1 µM in 10 mM sodium acetate, pH 4.5) was then immobilized on the chip to 7000 response units and 2000 response units, respectively. After immobilization, the lanes were subjected to 60 µL ethanolamine (1 M, pH 8.5) to deactivate remaining activated carboxylic groups. One lane, activated and deactivated, was used as negative control (without addition of CsgA). Standard Biacore HBS-EP (Biacore AB) was utilized as running buffer, and 0.1 µM LL-37, sLL-37 or VIP were injected at 20 µl/min for 3 min. The surface was regenerated after each cycle with 100 mM HCl.

[2] = system: curli-mediated biofilm formation by E. coli; assay: Effect on formation of biofilm, crystal violet microtiter plate; type: cell-based, Escherichia coli
Method: To measure the ability of the bacteria to adhere and to form biofilm a crystal violet assay in polystyrene microtiter plates (Costar, Corning, NY, USA) was performed. Bacteria were grown in Luria-Bertani (LB) broth without salt for 24 h at 37°C without shaking. Biofilm was then stained with crystal violet (3%). The dye was solubilized with ethanol (95%) and the optical density was measured at 570 nm.
Plates were filled with 90 µL bacterial culture of planktonic cells and 10 µL of aqueous solution of LL-37 in the same concentrations as in the susceptibility assay. As control peptides, sLL-37 (Innovagen AB) and VIP [27] with similar structural properties as LL-37 were utilized. The plates were incubated without shaking at 37°C for 20 h. After incubation, the amount of biofilm formed was determined as described above.

monomeric CsgA = target: T3, monomeric CsgA (Escherichia coli, UniProt P28307); assay: Surface plasmon resonance, monomeric CsgA; conditions: monomeric CsgA immobilized (2000 response units), 0.1 µM peptide, 20 µl/min for 3 min, HBS-EP, Biacore 3000; binding constants not determinable
T3 construct: made in house; host or cells: E. coli LSR12 (C600::csg), co-expressed with CsgG
T3 sequence (P28307 21-151): as above
Method: as §2

CC[C@H](C)[C@H](NC(=O)[C@H](CCCCN)NC(=O)[C@H](CCC(=O)O)NC(=O)CNC(=O)CNC(=O)[C@H](CCCCN)NC(=O)[C@H](CCCNC(=N)N)NC(=O)[C@H](CC(C)C)NC(=O)[C@H](CC(C)C)NC(=O)CN)C(=O)NCC(=O)N[C@@H](CCC(=O)O)C(=O)N[C@@H](CCCCN)C(=O)N[C@@H](CC(C)C)C(=O)N[C@@H](CCCCN)C(=O)N[C@@H](CCCCN)C(=O)N[C@H](C(=O)NCC(=O)N[C@@H](CCC(N)=O)C(=O)N[C@@H](CCCCN)C(=O)N[C@H](C(=O)N[C@@H](CCCCN)C(=O)N[C@@H](CC(N)=O)C(=O)N[C@@H](Cc1ccccc1)C(=O)N[C@@H](Cc1ccccc1)C(=O)N[C@@H](CCC(N)=O)C(=O)N[C@@H](CCCCN)C(=O)N[C@@H](CC(C)C)C(=O)N[C@H](C(=O)N1CCC[C@H]1C(=O)N[C@@H](CCC(N)=O)C(=O)N1CCC[C@H]1C(=O)N[C@@H](CCC(=O)O)C(=O)N[C@@H](CCC(N)=O)C(=O)O)C(C)C)[C@@H](C)CC)[C@@H](C)CC [mCRAMP] (H-GLLRKGGEKIGEKLKKIGQKIKNFFQKLVPQPEQ-OH; N-terminus and C-terminus assumed)
difference in resistance between the strains [1]: no significant difference in the resistance

CsgA: major curli subunit, recombinant CsgA-His6
solubility of polymeric CsgA (from CD signal amplitude) (CsgA): decreased solubility due to polymerization | time to stationary phase of CsgA polymerization (CsgA polymerization; 10 µM CsgA alone): approximately 300 min | binding to toll-like receptor 2 (toll-like receptor 2): binding of CsgA to toll-like receptor 2

vasoactive intestinal peptide [VIP]
fluorescence relative to CsgA alone (CsgA fiber formation): approximately 0.2 arbitrary units | binding / association and dissociation by SPR (polymeric CsgA): faster dissociation rates than LL-37, indicating a weaker binding to CsgA | reduction of biofilm formation ([2]; 2.5 µM peptide, cellulose-negative, curli-expressing E. coli strain, 37°C, 20 h, two experiments in triplicates): 10% | biofilm reduction compared with the effect of LL-37 ([2]; 2.5 µM, P = 0.001, t-test): significantly lower reduction than the effect of LL-37 | inhibition of CsgA polymerization (ThT fluorescence) (CsgA polymerization; 10 µM CsgA with different concentrations of peptide): less pronounced effect on CsgA polymerization than LL-37 | binding / association and dissociation by SPR (monomeric CsgA): faster dissociation rates than LL-37, indicating a weaker binding to CsgA

Source: paper PMC2908543, “Uropathogenic Escherichia coli Modulates Immune Responses and Its Curli Fimbriae Interact with the Antimicrobial Peptide LL-37” (PLoS Pathogens, 2010)
